Results from PubChem BioAssay (NCI).
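Cells were grown in 96-well plates and exposed to each compound for 48 hours at five concentrations; endpoints were interpolated linearly between bracketing concentrations, or set to the highest concentration if not reached. Abbreviation: GI50, concentration required for 50% inhibition of growth. The concentration for full growth arrest is given as TGI.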

Assays:
Assay in all cases: inhibition of tumour cell growth, NCI panel, 48 h
786-0 renal = tested on: 786-0 renal
A498 renal = tested on: A498 renal
A549 NSCLC = tested on: A549 NSCLC
ACHN renal = tested on: ACHN renal
BT-549 breast = tested on: BT-549 breast
CAKI-1 renal = tested on: CAKI-1 renal
CCRF-CEM leukemia = tested on: CCRF-CEM leukemia
COLO 205 colon = tested on: COLO 205 colon
EKVX NSCLC = tested on: EKVX NSCLC
HCC-2998 colon = tested on: HCC-2998 colon
HCT-116 colon = tested on: HCT-116 colon
HCT-15 colon = tested on: HCT-15 colon
HL-60(TB) leukemia = tested on: HL-60(TB) leukemia
HOP-62 NSCLC = tested on: HOP-62 NSCLC
HOP-92 NSCLC = tested on: HOP-92 NSCLC
HT29 colon = tested on: HT29 colon
IGROV1 ovarian = tested on: IGROV1 ovarian
K-562 leukemia = tested on: K-562 leukemia
KM12 colon = tested on: KM12 colon
LOX IMVI melanoma = tested on: LOX IMVI melanoma
M14 melanoma = tested on: M14 melanoma
MALME-3M melanoma = tested on: MALME-3M melanoma
MCF7 breast = tested on: MCF7 breast
MDA-MB-231 breast = tested on: MDA-MB-231 breast
MDA-MB-435 = tested on: MDA-MB-435
MDA-N = tested on: MDA-N
MOLT-4 leukemia = tested on: MOLT-4 leukemia
NCI-H226 lung = tested on: NCI-H226 lung
NCI-H23 lung = tested on: NCI-H23 lung
NCI-H522 lung = tested on: NCI-H522 lung
NCI/ADR-RES ovarian = tested on: NCI/ADR-RES ovarian
OVCAR-3 ovarian = tested on: OVCAR-3 ovarian
OVCAR-4 ovarian = tested on: OVCAR-4 ovarian
OVCAR-5 ovarian = tested on: OVCAR-5 ovarian
OVCAR-8 ovarian = tested on: OVCAR-8 ovarian
PC-3 prostate = tested on: PC-3 prostate
RPMI-8226 leukemia = tested on: RPMI-8226 leukemia
SF-295 CNS = tested on: SF-295 CNS
SF-539 CNS = tested on: SF-539 CNS
SK-MEL-2 melanoma = tested on: SK-MEL-2 melanoma
SK-MEL-28 melanoma = tested on: SK-MEL-28 melanoma
SK-MEL-5 melanoma = tested on: SK-MEL-5 melanoma
SK-OV-3 ovarian = tested on: SK-OV-3 ovarian
SN12C renal = tested on: SN12C renal
SNB-19 CNS = tested on: SNB-19 CNS
SNB-75 CNS = tested on: SNB-75 CNS
SR leukemia = tested on: SR leukemia
SW-620 colon = tested on: SW-620 colon
T-47D breast = tested on: T-47D breast
TK-10 renal = tested on: TK-10 renal
U251 CNS = tested on: U251 CNS
UACC-257 melanoma = tested on: UACC-257 melanoma
UACC-62 melanoma = tested on: UACC-62 melanoma
UO-31 renal = tested on: UO-31 renal
DU-145 prostate = tested on: DU-145 prostate
HS 578T breast = tested on: HS 578T breast
NCI-H460 lung = tested on: NCI-H460 lung
RXF 393 renal = tested on: RXF 393 renal
SF-268 CNS = tested on: SF-268 CNS

Structure (SMILES): CCCNc1c(Cl)cc(Cl)c2[nH]c3ccccc3c(=O)c12
- TGI (786-0 renal): > 100 µM
- TGI (A498 renal): > 100 µM
- TGI (A549 NSCLC): > 100 µM
- TGI (ACHN renal): > 100 µM
- TGI (BT-549 breast): > 100 µM
- TGI (CAKI-1 renal): > 100 µM
- TGI (CCRF-CEM leukemia): > 100 µM
- TGI (COLO 205 colon): > 100 µM
- TGI (EKVX NSCLC): > 100 µM
- TGI (HCC-2998 colon): > 100 µM
- TGI (HCT-116 colon): > 100 µM
- TGI (HCT-15 colon): > 100 µM
- TGI (HL-60(TB) leukemia): 47.6 µM
- TGI (HOP-62 NSCLC): > 100 µM
- TGI (HOP-92 NSCLC): 35 µM
- TGI (HT29 colon): > 100 µM
- TGI (IGROV1 ovarian): > 100 µM
- TGI (K-562 leukemia): > 100 µM
- TGI (KM12 colon): > 100 µM
- TGI (LOX IMVI melanoma): > 100 µM
- TGI (M14 melanoma): > 100 µM
- TGI (MALME-3M melanoma): 75.3 µM
- TGI (MCF7 breast): > 100 µM
- TGI (MDA-MB-231 breast): > 100 µM
- TGI (MDA-MB-435): > 100 µM
- TGI (MDA-N): > 100 µM
- TGI (MOLT-4 leukemia): > 100 µM
- TGI (NCI-H226 lung): > 100 µM
- TGI (NCI-H23 lung): > 100 µM
- TGI (NCI-H522 lung): > 100 µM
- TGI (NCI/ADR-RES ovarian): > 100 µM
- TGI (OVCAR-3 ovarian): > 100 µM
- TGI (OVCAR-4 ovarian): > 100 µM
- TGI (OVCAR-5 ovarian): > 100 µM
- TGI (OVCAR-8 ovarian): > 100 µM
- TGI (PC-3 prostate): > 100 µM
- TGI (RPMI-8226 leukemia): > 100 µM
- TGI (SF-295 CNS): > 100 µM
- TGI (SF-539 CNS): > 100 µM
- TGI (SK-MEL-2 melanoma): > 100 µM
- TGI (SK-MEL-28 melanoma): > 100 µM
- TGI (SK-MEL-5 melanoma): > 100 µM
- TGI (SK-OV-3 ovarian): > 100 µM
- TGI (SN12C renal): > 100 µM
- TGI (SNB-19 CNS): 65.7 µM
- TGI (SNB-75 CNS): > 100 µM
- TGI (SR leukemia): > 100 µM
- TGI (SW-620 colon): > 100 µM
- TGI (T-47D breast): > 100 µM
- TGI (TK-10 renal): > 100 µM
- TGI (U251 CNS): > 100 µM
- TGI (UACC-257 melanoma): > 100 µM
- TGI (UACC-62 melanoma): > 100 µM
- TGI (UO-31 renal): > 100 µM

Structure (SMILES): O=C1/C(=C\c2ccccc2)CN(C(=O)c2ccccc2F)C/C1=C\c1ccccc1
- GI50 (786-0 renal): 1.85 µM
- TGI (786-0 renal): 3.56 µM
- GI50 (A498 renal): 2.63 µM
- TGI (A498 renal): 13.2 µM
- GI50 (A549 NSCLC): 3.2 µM
- TGI (A549 NSCLC): 12 µM
- GI50 (ACHN renal): 1.85 µM
- TGI (ACHN renal): 3.46 µM
- GI50 (BT-549 breast): 1.86 µM
- TGI (BT-549 breast): 3.58 µM
- GI50 (CAKI-1 renal): 3.4 µM
- TGI (CAKI-1 renal): 12.8 µM
- GI50 (CCRF-CEM leukemia): 1.52 µM
- TGI (CCRF-CEM leukemia): 5.62 µM
- GI50 (COLO 205 colon): 2.05 µM
- TGI (COLO 205 colon): 4.03 µM
- GI50 (DU-145 prostate): 2.73 µM
- TGI (DU-145 prostate): 6.41 µM
- GI50 (HCC-2998 colon): 2.11 µM
- TGI (HCC-2998 colon): 3.66 µM
- GI50 (HCT-116 colon): 0.321 µM
- TGI (HCT-116 colon): 1.03 µM
- GI50 (HCT-15 colon): 1.88 µM
- TGI (HCT-15 colon): 4.11 µM
- GI50 (HL-60(TB) leukemia): 2.78 µM
- TGI (HL-60(TB) leukemia): 7.36 µM
- GI50 (HOP-62 NSCLC): 2.53 µM
- TGI (HOP-62 NSCLC): 6.57 µM
- GI50 (HOP-92 NSCLC): 3.18 µM
- TGI (HOP-92 NSCLC): 14.2 µM
- GI50 (HS 578T breast): 2.48 µM
- TGI (HS 578T breast): 7.13 µM
- GI50 (HT29 colon): 1.48 µM
- TGI (HT29 colon): 4.17 µM
- GI50 (IGROV1 ovarian): 2.08 µM
- TGI (IGROV1 ovarian): 4.46 µM
- GI50 (K-562 leukemia): 0.992 µM
- TGI (K-562 leukemia): > 20.7 µM
- GI50 (KM12 colon): 1.37 µM
- TGI (KM12 colon): 3.11 µM
- GI50 (LOX IMVI melanoma): 0.746 µM
- TGI (LOX IMVI melanoma): 2.17 µM
- GI50 (M14 melanoma): 2.51 µM
- TGI (M14 melanoma): 7.12 µM
- GI50 (MALME-3M melanoma): 2.24 µM
- TGI (MALME-3M melanoma): 4.75 µM
- GI50 (MCF7 breast): 0.449 µM
- TGI (MCF7 breast): 2.07 µM
- GI50 (MDA-MB-231 breast): 2 µM
- TGI (MDA-MB-231 breast): 4.06 µM
- GI50 (MDA-MB-435): 1.13 µM
- TGI (MDA-MB-435): 3.32 µM
- GI50 (MOLT-4 leukemia): 2.93 µM
- TGI (MOLT-4 leukemia): 8.51 µM
- GI50 (NCI-H226 lung): 5.6 µM
- TGI (NCI-H226 lung): 21.5 µM
- GI50 (NCI-H23 lung): 2.13 µM
- TGI (NCI-H23 lung): 4.84 µM
- GI50 (NCI-H460 lung): 2.67 µM
- TGI (NCI-H460 lung): 7.35 µM
- GI50 (NCI-H522 lung): 1.78 µM
- TGI (NCI-H522 lung): 3.47 µM
- GI50 (NCI/ADR-RES ovarian): 3.3 µM
- TGI (NCI/ADR-RES ovarian): 19.4 µM
- GI50 (OVCAR-3 ovarian): 2.36 µM
- TGI (OVCAR-3 ovarian): 5.35 µM
- GI50 (OVCAR-4 ovarian): 3.04 µM
- TGI (OVCAR-4 ovarian): 11.2 µM
- GI50 (OVCAR-5 ovarian): 2.16 µM
- TGI (OVCAR-5 ovarian): 5.38 µM
- GI50 (OVCAR-8 ovarian): 2.67 µM
- TGI (OVCAR-8 ovarian): 7.9 µM
- GI50 (PC-3 prostate): 2.34 µM
- TGI (PC-3 prostate): 7.22 µM
- GI50 (RPMI-8226 leukemia): 0.125 µM
- TGI (RPMI-8226 leukemia): 0.72 µM
- GI50 (RXF 393 renal): 1.8 µM
- TGI (RXF 393 renal): 3.41 µM
- GI50 (SF-268 CNS): 2.8 µM
- TGI (SF-268 CNS): 8.85 µM
- GI50 (SF-295 CNS): 2.24 µM
- TGI (SF-295 CNS): 5.77 µM
- GI50 (SF-539 CNS): 2 µM
- TGI (SF-539 CNS): 4.12 µM
- GI50 (SK-MEL-2 melanoma): 2.95 µM
- TGI (SK-MEL-2 melanoma): 8.3 µM
- GI50 (SK-MEL-28 melanoma): 2.08 µM
- TGI (SK-MEL-28 melanoma): 4.05 µM
- GI50 (SK-MEL-5 melanoma): 1.7 µM
- TGI (SK-MEL-5 melanoma): 3.23 µM
- GI50 (SK-OV-3 ovarian): 2.4 µM
- TGI (SK-OV-3 ovarian): 5.34 µM
- GI50 (SN12C renal): 1.77 µM
- TGI (SN12C renal): 3.48 µM
- GI50 (SNB-19 CNS): 1.85 µM
- TGI (SNB-19 CNS): 4.15 µM
- GI50 (SNB-75 CNS): 3.5 µM
- TGI (SNB-75 CNS): 14.5 µM
- GI50 (SR leukemia): 0.407 µM
- TGI (SR leukemia): 3.45 µM
- GI50 (SW-620 colon): 1.52 µM
- TGI (SW-620 colon): 3.48 µM
- GI50 (T-47D breast): 2.57 µM
- TGI (T-47D breast): 8.78 µM
- GI50 (TK-10 renal): 2.33 µM
- TGI (TK-10 renal): 5.75 µM
- GI50 (U251 CNS): 1.68 µM
- TGI (U251 CNS): 3.26 µM
- GI50 (UACC-257 melanoma): 2.15 µM
- TGI (UACC-257 melanoma): 4.79 µM
- GI50 (UACC-62 melanoma): 1.68 µM
- TGI (UACC-62 melanoma): 3.41 µM
- GI50 (UO-31 renal): 1.53 µM
- TGI (UO-31 renal): 3.24 µM
